Tests used:
[1] = system: APOE; conditions: E4 pericytes, earlier work of the inventors; cited from earlier work
[2] = system: APOE4/5×FAD mice; conditions: mouse, in vivo
[3] = system: APOE; assay: APOE expression by qRT-PCR in APOE4/4 pericytes treated with cyclosporin analogs; assay type: cell-based, human; conditions: compared with cyclosporin A and FK506
Excerpt: FIGS. 2A-2D show APOE expression measured by qRT-PCR in APOE4/4 pericytes following treatment with Cyclosporin A (FIG. 2A), FK506 (FIG. 2B), Cyclosporin D (FIG. 2C), Cyclosporin H (FIG. 2D). One-way ANOVA with Bonferroni's Multiple Comparison test, 6 replicates per a timepoint.
FK506 and cyclosporin A can reduce the expression of APOE in human pericytes and brain cells and reverse or prevent cerebrovascular pathologies associated with Alzheimer's Disease such as cerebral amyloid angiopathy. Both cyclosporine A and FK506 have immunosuppressant activity. […] Results showing APOE expression after APOE4 pericytes were treated with Cyclosporin analogs for two weeks are depicted in FIG. 1. Following treatment with Cyclosporin A, FK506, Cyclosporin D, Cyclosporin H, APOE expression was measured by qRT-PCR in APOE4/4 pericytes (see FIGS. 2A-2D).

O=C1C=CC(=O)C2=C1C1c3ccccc3C2c2ccccc21 [INCA6]
APOE gene expression [1]: reduction | APOE protein [1]: reduction

C=CC[C@@H]1/C=C(\C)C[C@H](C)C[C@H](OC)[C@H]2O[C@@](O)(C(=O)C(=O)N3CCCC[C@H]3C(=O)O[C@H](/C(C)=C/[C@@H]3CC[C@@H](O)[C@H](OC)C3)[C@H](C)[C@@H](O)CC1=O)[C@H](C)C[C@@H]2OC [FK506]
toxicity compared to cyclosporine treated mice [2]: less toxicity

C/C=C/C[C@@H](C)[C@@H](O)[C@H]1C(=O)N[C@@H](C(C)C)C(=O)N(C)CC(=O)N(C)[C@@H](CC(C)C)C(=O)N[C@@H](C(C)C)C(=O)N(C)[C@@H](CC(C)C)C(=O)N[C@@H](C)C(=O)N[C@H](C)C(=O)N(C)[C@@H](CC(C)C)C(=O)N(C)[C@@H](CC(C)C)C(=O)N(C)[C@@H](C(C)C)C(=O)N1C [cyclosporin D]
kinetics of APOE expression reduction [3]: faster kinetics | potency in reducing APOE expression (able to reduce at lower doses) [3]: significantly more potent

— patent publication US12201669B2, “Small molecule suppressors of APOE gene expression and cerebral vascular amyloid pathology” (Massachusetts Institute of Technology, priority 2021, dated 2025)
